From article PMC4428838, “Optimization of Invasion-Specific Effects of Betulin Derivatives on Prostate Cancer Cells through Lead Development” (PLoS ONE, 2015)

What was measured:
LAPC-4 = assay: Secondary 3D screen (spheroid size, complexity, cell death); format: cell-based; details: yellow and red clusters
Text: Next, the 25 selected betulin derivatives depicted in Figs 1–3 including control compounds were again thoroughly tested across the same panel of prostate-derived cell lines already used in the preliminary, 2D high-throughput screen. The resulting dendrograms were either generated separately for each cell line (S4 Fig), combined into a single dendrogram (Fig 5A), or shown as reduced organoid sizes (area; Fig 5B).
Fig 5 Secondary 3D screens. Experimental betulin derivatives and control compounds were tested across a panel of prostate cancer lines (LNCaP, LAPC-4) and non-transformed, prostate epithelial cells (EP156T) in 3D culture. A) The dendrogram is based on three main morphological parameters and combines all data from primary and secondary 3D screens. […] B) Boxplots showing the impact of selected compounds on spheroid size (Area). Data scaling: as described in Fig 4 C) Effects of all betulin derivatives and control compounds on cell death (number of dead cells).
All 3D cultures were done in growth factor-free Matrigel Basement-membrane Matrix (Corning Inc., New York, NY, USA) using 96-well Angiogenesis μ-plates (ibidi GmbH, Munich, Germany) as described before.[38] “Sandwich” assays in short: bottom wells of cooled Angiogenesis plates were filled with 10 μL 4 mg/mL Matrigel, centrifuged for 20 min 200 g and incubated at 37°C temperature for approximately 30–60 min or until the ECM had polymerized. 1,000–1,500 cells were mixed in 2 mg/mL ECM-medium, and 20 μL of cell suspension was added in each well. The plates were centrifuged for 10 min at 100 g, or until the cells had settled on top of the lower ECM. Finally, the outer wells and side reservoirs were filled with water for humidification, and the culture plates placed into the incubator for 3–4 h or overnight. The following day, 60 μL of cell culture medium were added; refreshed every third day by carefully aspirating the medium. This “sandwich” setting allows almost unifocal alignment of cells and 3D structures in a single optical plane, thus reducing the time required for confocal stack imaging.
All control compounds were purchased from Selleck (Munich, Germany), except for staurosporine (Sigma-Aldrich, St. Louis, MO, USA) and Y-27632 (Tocris, Bristol, UK) and dissolved in dimethyl sulfoxide (DMSO) as a vehicle at 10 mM. In the primary and secondary 3D screens, experimental and control compound exposures were performed in triplicates. Four concentrations for each compound were applied (0.03, 0.1, 0.3 and 1 μM). Compound treatments were initiated four days after cell embedding, and continued for six days after which spheroids were stained and imaged.
Supplementary file pone.0126111.s004.eps: S4 Fig Secondary screens. Dendrograms for A) LNCaP, B) LAPC-4, and C) Ep156T betulin screens in 3D culture have been constructed using three main read-outs: spheroid size, spheroid complexity, and cell death. […] (EPS) Click here for additional data file.

PC3 cells = assay: Cell morphology and actin cytoskeleton in 2D monolayer culture; format: cell-based; details: PC3, 2D, 72h
Procedure: As a control, we also tested morphologies treated with the same panel of anti-invasive compounds 4, 5, 6, 16 and 20 as well as betulin (1) on PC3 cells grown in 2D monolayer cultures (S9 Fig).
Supplementary file pone.0126111.s009.tif: S9 Fig Morphologies of PC-3, LNCaP and Ep156T cells in 2D monolayer culture, exposed 72h to selected betulin derivatives. Actin cytoskeleton (filamentous or F- actin) is stained green (LifeAct), nuclei with a red dye (confocal microscope images, 40× objective, scale bar shown for each panel on the right lower corner). (TIF) Click here for additional data file.

[1] = system: phosphorylation levels of 43 kinases in PC-3 cells; assay: Phospho-kinase antibody array on lysates of 3D cultures; format: cell-based, human; details: for p70 S6 kinase (T389), p53 (S392) and PYK2 (Y402) phosphorylation: 6-d exposure; for phosphorylation levels of STAT3 (Y727), c-Jun (S63), eNOS (S1177) and PLC-γ1 (Y783): both short (4 h, 1 μM) and long-term (6 d, 300 nM) exposures
Procedure: In order to elucidate possible mechanism of action for our betulin derivatives, we used a phospho-kinase array that quantitatively detects the phosphorylation levels of 43 kinases in cell lysates (Fig 7). Lysates were extracted from 3D cell cultures of PC-3 cells, and exposed to betulin-derived compounds for short (4 hours) or long-term (6 days) periods. For these studies, we selected the two representative derivatives 5 and 20 as the most specific, least cytotoxic inhibitors of cell invasion. […] The kinase arrays were also quantified by image densitometry (Fig 7A). […] The reduction of AKT activity by both compounds was validated by western blotting, using an independent, p-AKT specific antibody (Fig 7B). The short treatments caused only modest changes with a maximum reduction of protein phosphorylation by 2-fold (20: GSK-3α/β S21/S9 and STAT3 Y705). Phosphorylation levels of only three kinases were altered more than 2-fold in the long-term exposures, namely AKT (T308), p53 (S46) and eNOS (S1177), caused by nanomolar concentrations of compound 5. Compound 20 had much less dramatic effects on kinase phosphorylation when compared to compound 5, despite its generally more pronounced anti-invasive effects.
Fig 7 Mechanisms of action. PC-3 spheroids were exposed to two representative betulin derivatives, 5 and 20, for 4 h (at 1 μM) and 6 days (at 0.3 μM). A) Computational quantification of signal intensities from the kinase arrays, aligned by fold changes observed (left to right). B) Western blot of total and phospho-Akt (S473) shown for both short and long-term exposure to 20 and 5.
In order to generate sufficient protein material for antibody arrays, we resorted to 6-well Millicell hanging cell culture inserts (Merck Millipore, Billerica, MA, USA). Membranes were pre-coated with 4 mg/mL GFR Matrigel (Corning Inc., New York, NY, USA) and incubated at 37°C for 1 h to prevent attachment to the membrane. GFR Matrigel (2 mg/mL) was prepared and 100,000 cells were added in. The Matrigel-cell suspension was transferred into the coated wells and incubated overnight at 37°C. Fresh medium was added the following day under the insert. After four days in culture fresh media with compounds 20 and 5 at 0.3 μM concentration compounds were added for six days long-term exposure. On day 10, the same compounds were added in fresh medium at 1 μM concentration for the 4h short-term exposure. DMSO was used as a negative control in both exposures. Cells were harvested by first washing the inserts with ice cold PBS, then incubating the isolated ECM slabs in ice cold 5 mM ethylenediaminetetraacetic acid (EDTA) in PBS on ice on a table top rocker for 45 min to dissolve the ECM, and finally by washing the cell pellets once with PBS before lysing them in Lysis Buffer 6 (R&D Systems, Minneapolis, MN, USA). The antibody arrays used were from the Human Phospho-Kinase Array Kit (R&D Systems, Minneapolis, MN, USA). The samples were assayed according to manufacturer’s instructions. Exposed radiograms were scanned with a tabletop scanner and spot intensities quantified using Array-Pro Analyzer (v4.5.1.73) software.

SMILES	efficacy in 3D LAPC-4 culture (dendrogram clusters) (LAPC-4)	morphology and actin cytoskeleton of cells in 2D monolayer (PC3 cells)	AMPKα1 (T174) phosphorylation [1]	p70 S6 kinase (T389), p53 (S392) and PYK2 (Y402) phosphorylation ([1]; 300 nM)	phosphorylation levels of STAT3 (Y727), c-Jun (S63), eNOS (S1177) and PLC-γ1 (Y783) [1]	p53 (S15) phosphorylation ([1]; short-term exposure, 4 h, 1 μM)	further results
CC(C)[C@@H]1CC[C@]2(C(=O)O)CC[C@]3(C)C(CCC4[C@@]5(C)Cc6cnoc6C(C)(C)C5CC[C@]43C)C12 (stereo partly shown) [Compound 4]	most active	No morphologies and visible effects on the actin cytoskeleton					
C=C(C)[C@@H]1CC[C@]2(C(=O)O)CC[C@]3(C)C(CCC4[C@@]5(C)Cc6cnoc6C(C)(C)C5CC[C@]43C)C12 (stereo partly shown) [Compound 5]		No morphologies and visible effects on the actin cytoskeleton	increased	reduced	clearly decreased	reduced	phosphorylation of p53 sites S46 and S392 [1]: consistently decreased; alteration of phosphorylation levels of AKT (T308), p53 (S46) and eNOS (S1177) ([1]; long-term exposures, 6 d, nanomolar concentrations): more than 2 fold; Akt (T308) phosphorylation ([1]; long-term treatment, 6 d, 300 nM): abolished almost entirely; specific changes in kinase activity ([1]; short-term exposure, 4 h, 1 μM): did not cause any specific changes in kinase activity
C=C(C)[C@@H]1CC[C@]2(C(=O)O)CC[C@]3(C)C(CCC4[C@@]5(C)Cc6c[nH]nc6C(C)(C)C5CC[C@]43C)C12 (stereo partly shown) [Compound 6]	most active	No morphologies and visible effects on the actin cytoskeleton					
C=C(C)[C@@H]1CC[C@]2(C(=O)O)CC[C@]3(C)C(CCC4[C@@]5(C)Cc6cccnc6C(C)(C)C5CC[C@]43C)C12 (stereo partly shown) [Compound 19]	most active						
C=C(C)[C@@H]1CC[C@]2(C(=O)O)CC[C@]3(C)C(CCC4[C@@]5(C)Cc6ncccc6C(C)(C)C5CC[C@]43C)C12 (stereo partly shown) [Compound 20]	most active	No morphologies and visible effects on the actin cytoskeleton	increased	reduced	clearly decreased	reduced	phosphorylation of mTOR (S2448), Fyn (Y420) and Src (Y419) [1]: increased; Akt (S473) phosphorylation ([1]; 4 h at 1 μM vs 6 d at 300 nM): only inhibited by the 6-d exposure; phosphorylation of Hck (Y411), pan-JNK, GSK-3α/β (S21/S9), STAT3 (Y705) and WNK1 (T60) sites ([1]; compound-specific effects): differential phosphorylation; maximum reduction of protein phosphorylation (GSK-3α/β S21/S9 and STAT3 Y705) ([1]; short treatments, 4 h, 1 μM): 2 fold
CC(=O)O[C@H]1C(=O)[C@@]2(C)[C@H]([C@H](OC(=O)c3ccccc3)[C@]3(O)C[C@H](OC(=O)[C@H](O)[C@@H](NC(=O)c4ccccc4)c4ccccc4)C(C)=C1C3(C)C)[C@]1(OC(C)=O)CO[C@@H]1C[C@@H]2O [Paclitaxel, paclitaxel, reference compound]	efficacy of all positive controls						
